Counter-ions that a name gives are not always drawn.
Columns and labels:
[1] = Solubility of rupatadine fumarate in water and in buffer solutions at different pH; type: physicochemical; conditions: water; 25 g/L added, stirring 16 - 24 h, filtered; room temperature
Description: The solubility of rupatadine fumarate was determined by adding 25 g/L of rupatadine fumarate to water and stirring during 16 - 24 h. The resulting solution was filtered and the amount of rupatadine determined using the Method 2. Using the same procedure, but using buffer solutions of known pH instead of water, the solubility of rupatadine fumarate at different pH was determined (the pH of the solution was measured prior to the addition of rupatadine fumarate).

[2] = Rate of formation of Compound II in aqueous solutions of rupatadine fumarate on storage (HPLC, Method 2); type: physicochemical; conditions: aqueous solution 1 g(rupatadine fumarate)/L
Description: The HPLC method used to determine the % Compound II present in a formulation is based on the European Pharmacopoeia 2.2.29 using the following conditions: • room temperature and atmospheric pressure • column: C1810 µm (3.9 mm x 30 cm) • eluent: Methanol - Phosphate buffer solution pH 4.2 (75:25) • eluent flow: 1.3 mL/min • detection: UV-Visible spectrophotometer at 265 nm • retention time of Rupatadine: aprox. 8.9 min • relative retention time of Compound II: aprox. 0.43 Reference standard solutions of rupatadine and Compound II (which can be prepared as described in Reference Example 3) are used in the identification of the components. The test sample is compared to the equivalent placebo (same formulation without rupatadine fumarate) to check overlapping peaks with other excipients in the formulation. The % Compound II is calculated as 100*(area of Compound II peak)/(area of rupatadine peak). Different aqueous solutions comprising rupatadine fumarate at a concentration of 1 g(rupatadine fumarate)/L at different pH (3.41, 4.38 and 5.00), obtained adding the required amount of solutions of HCl(aq) or NaOH(aq) to solutions containing only water and rupatadine fumarate, were stored at different temperature conditions (room temperature and 40°C/75%HR) during two months and analyzed at the beginning, at one month and at the end of the period using Method 2, see table below.

solubility [1]: 2900 µg/mL | % Compound II 1 month ([2]; pH 3.41, 25 ± 2°C): 0.174% | % Compound II 1 month ([2]; pH 3.41, 40 ± 2°C): 0.737% | % Compound II 2 months ([2]; pH 3.41, 25 ± 2°C): 0.276% | % Compound II 2 months ([2]; pH 3.41, 40 ± 2°C): 1.396% | % Compound II initial ([2]; pH 3.41): 0.035% | % Compound II 1 month ([2]; pH 4.38, 25 ± 2°C): 0.090% | % Compound II 1 month ([2]; pH 4.38, 40 ± 2°C): 0.357% | % Compound II 2 months ([2]; pH 4.38, 25 ± 2°C): 0.142% | % Compound II 2 months ([2]; pH 4.38, 40 ± 2°C): 0.646% | % Compound II initial ([2]; pH 4.38): 0.036% | % Compound II 1 month ([2]; pH 5.00, 25 ± 2°C): 0.039% | % Compound II 1 month ([2]; pH 5.00, 40 ± 2°C): 0.112% | % Compound II 2 months ([2]; pH 5.00, 25 ± 2°C): 0.051% | % Compound II 2 months ([2]; pH 5.00, 40 ± 2°C): 0.182% | % Compound II initial ([2]; pH 5.00): 0.040%
Compound: Cc1cncc(CN2CCC(=C3c4ccc(Cl)cc4CCc4cccnc43)CC2)c1 [rupatadine fumarate]
